Data as given in article PMC7767178 (International Journal of Molecular Sciences, 2020).
Counter-ions that a name gives are not always drawn. Like-named read-outs stand apart in the source and are kept apart here.

Legend:
[1] = test system: A. veronii ACCC61732; assay: microbe, parasite or virus in culture; type: cell-based; conditions: for MIC: Aeromonas veronii; for MICa, MIC of the antibiotic used alone: checkerboard
Excerpt: The checkerboard microtiter assay was used to determine the combinations of peptides with different antibiotics (including quinolone, rifamycin, peptide antibiotics, aminoglycoside, tetracycline, and chloramphenicol). […] The fractional inhibitory concentration (FIC) was used to calculate the combination effects using the following formula: FIC index (FICI) = MIC(peptide in combination)/MIC(peptide alone) + MIC(antibiotic in combination)/MIC(antibiotic alone). FICI ≤ 0.5 means synergistic, 0.5 < FICI ≤ 1 means additive action, 1 < FICI ≤ 4 means indifference, and FICI > 4 means antagonism.

[2] = test system: A. veronii ACCC61732; assay: Resistance development, 30 serial passages; type: cell-based; conditions: A. veronii ACCC61732, 30 passages (30 days)
Procedure: The development of bacterial resistance of peptides was performed by the MIC assays. […] GEN, CIP, and PMB were used as controls. […] The MIC values were measured as described above. The serial passaging was repeated for 30 days.

[3] = test system: Gram-negative bacteria; conditions: data not shown; ref our previous study; cited from earlier work
Excerpt: A. veronii is a widely distributed novel pathogen that can infect humans and animals. Due to overuse of broad-spectrum antibiotics in fish hatcheries, agriculture, and clinical settings, there has been an increase in antibiotic resistance of Aeromonas species, illustrating an emerging potential health concern.

[4] = test system: A. veronii ACCC61732; assay: Outer membrane permeabilization, NPN assay; type: cell-based; conditions: NPN fluorescence, 1×–4× MIC
Procedure: The outer membrane permeabilization abilities of peptides were determined using the fluorescent NPN assay. Mid-log phase A. veronii ACCC61732 was collected by centrifugation, washed twice, and then suspended in N-2-hydroxyethylpiperazine-n-2-ethane sulfonic acid (HEPES) buffer (pH 7.4) to an OD600nm = 0.4. […] Fluorescence intensity was recorded until no further increase with a microplate reader (excitation/emission, 328/438 nm).

[5] = ACCC61732, checkerboard, Tables S1–S5, identical values of one substance within a block given once, read-out: MICa, MIC of the antibiotic used alone
[6] = Tables S1–S5, identical values of one substance within a block given once

O=C(N[C@H](CO)[C@H](O)c1ccc([N+](=O)[O-])cc1)C(Cl)Cl [CHLO, chloramphenicol]
MIC [1, 5]: 0.25 µg/mL

CCN1CCN(c2cc3c(cc2F)c(=O)c(C(=O)O)cn3C2CC2)CC1 [ENRO, enrofloxacin]
MIC [1, 5]: 0.25 µg/mL

CNC(C)C1CCC(N)C(OC2C(N)CC(N)C(OC3OCC(C)(O)C(NC)C3O)C2O)O1 (stereo not shown) [GEN, gentamicin, reference compound]
increase of MIC after 30 serial passages [2]: 31 fold

NC[C@H]1O[C@H](O[C@H]2[C@H](O)[C@@H](O[C@H]3O[C@H](CO)[C@@H](O)[C@H](N)[C@H]3O)[C@H](N)C[C@@H]2N)[C@H](O)[C@@H](O)[C@@H]1O [KANA, kanamycin sulfate]
MIC [1, 5]: 8 µg/mL

CCn1cc(C(=O)O)c(=O)c2cc(F)c(N3CCNCC3)cc21 [NOR, norfloxacin]
MIC [1, 5]: 0.5 µg/mL

CC1COc2c(N3CCN(C)CC3)c(F)cc3c(=O)c(C(=O)O)cn1c23 (stereo not shown) [OFX, ofloxacin]
MIC [1, 5]: 0.25 µg/mL

[H]/N=C(/N)N[C@H]1[C@H](O)[C@@H](O)[C@H](O[C@@H]2O[C@@H](C)[C@](O)(C=O)[C@H]2O[C@@H]2O[C@@H](CO)[C@H](O)[C@@H](O)[C@@H]2NC)[C@@H](N/C(N)=N\[H])[C@@H]1O [STRE, streptomycin sulfate]
MIC [1, 5]: 64 µg/mL

CN[C@H](CC(C)C)C(=O)N[C@H]1C(=O)N[C@@H](CC(N)=O)C(=O)N[C@H]2C(=O)N[C@H]3C(=O)N[C@H](C(=O)N[C@H](C(=O)O)c4cc(O)cc(O)c4-c4cc3ccc4O)[C@H](O)c3ccc(c(Cl)c3)Oc3cc2cc(c3O[C@@H]2O[C@H](CO)[C@@H](O)[C@H](O)[C@H]2O[C@H]2C[C@](C)(N)[C@H](O)[C@H](C)O2)Oc2ccc(cc2Cl)[C@H]1O [VAN, vancomycin]
MIC ([1]; ACCC61732, read-out: MICa, MIC of the antibiotic used alone): 16 µg/mL

AACCGFWNVVYRNGVRVHRRN [SN1, analog of N6 without the β-sheet structural feature]
antimicrobial activity against Gram-negative bacteria [3]: lost the antimicrobial activity

GFWNVVYRNGVAACCRVHRRN [SN3, analog of N6 without the β-sheet structural feature]
antimicrobial activity against Gram-negative bacteria [3]: lost the antimicrobial activity

VCVYRCHRRANGFAWNNGVRV [N2413, analog of N6 without the β-sheet structural feature]
antimicrobial activity against Gram-negative bacteria [3]: lost the antimicrobial activity

VCVYRGFAWNCHRRANNGVRV [N2143, analog of N6 without the β-sheet structural feature]
antimicrobial activity against Gram-negative bacteria [3]: lost the antimicrobial activity

doxycycline hyclate
MICa, MIC of the antibiotic used alone [1, 6]: 1 µg/mL

polymyxin B [PMB, reference compound]
MICa, MIC of the antibiotic used alone [1, 6]: 8 µg/mL | increase of MIC after 30 serial passages [2]: one-fold | ability to penetrate the outer membrane [4]: higher ability to penetrate the outer membrane than N6NH2
